Experimental findings from US9980943B2, “Methods of treating muscular dystrophy” (BOARD OF REGENTS OF THE NEVADA SYSTEM OF HIGHER EDUCATION, …, priority 2013, dated 2018) are described below.

Holding throughout (type): cell-based, mouse
Assay [1] deals with β-galactosidase in CMV-LacZ C2C12 myotubes. Briefly: CMV-LacZ secondary screen in C2C12 myotubes (β-Gal stabilizing assay). The note with it: for CMV-LACZ in Myotubes (β-galactosidase activity relative to DMSO): CMV-LacZ C2C12 myotubes, 96-well format; for CMV-LACZ in Myotubes, signal relative to DMSO: C2C12 CMV-LacZ myotubes, fold relative to DMSO. In outline:
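CMV-LacZ C2C12 line (clonal, FDG-screened); myoblasts/myotubes dosed 0.5–40 μM (0.5, 1, 5, 10, 20, 40 μM); n=2 per point; β-gal stabilization read-out.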

The subject of assay [2] is α7 integrin (LacZ reporter in α7βgal+/− myoblasts). Briefly: Myoblast α7+/LacZ integrin FDG assay (Burkin assay in myoblasts, 96-well). The note with it: α7+/LacZ myoblasts, 96-well.
Assay [3] relates to α7 integrin (LacZ reporter in α7+/LacZ myotubes). As to the kind of experiment: Myotube α7 integrin FDG assay (Burkin assay in myotubes, 96-well). The note with it: myotubes.

For `CCCC(=O)Nc1ccccc1NC(=O)c1ccc(OCC)cc1` [MLS000685139-01], the “CMV-LACZ in Myotubes (β-galactosidase activity relative to DMSO)” value in assay [1] (5 uM) came out at 0.9362; in assay [1] (10 uM), 1.036; in assay [1] (20 uM), 1.031; in assay [1] (40 uM) it was 0.9387. Moreover, the “Burkin Assay in Myoblasts, value relative to DMSO” value turned out to be 0.8234 in assay [2] (0.5 uM); 0.6285 in assay [2] (1 uM); 0.8416 in assay [2] (5 uM); 0.776 in assay [2] (10 uM); 0.9893 in assay [2] (20 uM); 0.9848 in assay [2] (40 uM). Besides, the “Burkin Assay in Myotubes (signal relative to DMSO)” value in assay [3] (0.5 uM) was 0.8703; in assay [3] (1 uM), 0.9202; in assay [3] (5 uM) it was 1.128; in assay [3] (10 uM) it was 1.24; in assay [3] (20 uM), 1.102; in assay [3] (40 uM), 1.267.
In the case of `NS(=O)(=O)c1ccc(NC(=O)c2ccc(CNS(=O)(=O)c3cc(C(F)(F)F)ccc3Cl)cc2)cc1` [MLS000393110-01], the “CMV-LACZ in Myotubes, signal relative to DMSO” value in assay [1] (5 uM) came to 1.103; in assay [1] (10 uM), 0.9673; in assay [1] (20 uM) it was 1.0745; in assay [1] (40 uM), 0.8895. Besides, the “Burkin Assay in Myoblasts, signal relative to DMSO” value in assay [2] (0.5 uM) came out at 0.9045; in assay [2] (1 uM) it was 0.9273; in assay [2] (5 uM), 1.074; in assay [2] (10 uM), 1.088; in assay [2] (20 uM) it was 1.012; in assay [2] (40 uM), 0.71. Further, the “Burkin Assay in Myotubes, α7 integrin LacZ reporter signal relative to DMSO” value in assay [3] (0.5 uM) was determined as 1.139; in assay [3] (1 uM), 0.9276; in assay [3] (5 uM), 1.022; in assay [3] (10 uM), 0.9816; in assay [3] (20 uM), 0.6726; in assay [3] (40 uM) it was 0.8173.
On to `COc1ccc(CCNC(=O)c2cc(-c3cc(C)ccc3O)n[nH]2)cc1OC` [MLS000552080-01], for which the “CMV-LACZ in Myotubes, signal relative to DMSO” value was 1.197 in assay [1] (5 uM), 1.0688 in assay [1] (10 uM), 0.9522 in assay [1] (20 uM) and 0.8044 in assay [1] (40 uM). Also, the “Burkin Assay in Myoblasts, signal relative to DMSO” value is 0.9689 in assay [2] (0.5 uM); 0.9784 in assay [2] (1 uM); 1.056 in assay [2] (5 uM); 1.089 in assay [2] (10 uM); 0.9333 in assay [2] (20 uM); 0.8855 in assay [2] (40 uM). For the same compound, the “Burkin Assay in Myotubes, α7 integrin LacZ reporter signal relative to DMSO” value in assay [3] (0.5 uM) worked out at 0.9672; in assay [3] (1 uM) it was 1.15; in assay [3] (5 uM) it was 1.214; in assay [3] (10 uM), 1.24; in assay [3] (20 uM), 1.0378; in assay [3] (40 uM) it was 0.9286.
Regarding `CC1CCN(S(=O)(=O)c2ccc(S(=O)(=O)N3CCCC3)cc2)CC1` [MLS001217673-01], the “CMV-LACZ in Myotubes, signal relative to DMSO” value in assay [1] (5 uM) is given as 0.936; in assay [1] (10 uM), 0.9409; in assay [1] (20 uM), 1.161; in assay [1] (40 uM), 0.9352. Also, the “Burkin Assay in Myoblasts, signal relative to DMSO” value in assay [2] (0.5 uM) stood at 0.8494; in assay [2] (1 uM), 0.8343; in assay [2] (5 uM), 0.9353; in assay [2] (10 uM) it was 0.9256; in assay [2] (20 uM), 0.8325; in assay [2] (40 uM), 0.8079. Besides, the “Burkin Assay in Myotubes, α7 integrin LacZ reporter signal relative to DMSO” value in assay [3] (0.5 uM) was found to be 0.8894; in assay [3] (1 uM) it was 0.749; in assay [3] (5 uM), 0.9699; in assay [3] (10 uM), 0.9516; in assay [3] (20 uM), 1.095; in assay [3] (40 uM), 1.078.
Turning to `Cc1ccc(NCc2nnc(SCC(=O)Nc3nnc(C)s3)n2C)cc1` [MLS000688437-01], the “CMV-LACZ in Myotubes, signal relative to DMSO” value in assay [1] (5 uM) is reported as 1.232; in assay [1] (10 uM), 0.9346; in assay [1] (20 uM), 1.03; in assay [1] (40 uM), 1.051. The “Burkin Assay in Myoblasts, signal relative to DMSO” value in assay [2] (0.5 uM) turned out to be 0.8901; in assay [2] (1 uM), 0.8878; in assay [2] (5 uM) it was 0.8233; in assay [2] (10 uM), 0.9077; in assay [2] (20 uM) it was 0.8203; in assay [2] (40 uM), 0.8064. In addition, the “Burkin Assay in Myotubes, α7 integrin LacZ reporter signal relative to DMSO” value in assay [3] (0.5 uM) stood at 1.076; in assay [3] (1 uM), 1.194; in assay [3] (5 uM), 1.124; in assay [3] (10 uM), 1.102; in assay [3] (20 uM), 0.9929; in assay [3] (40 uM), 1.034.
Turning to `NC(=O)c1nsc(C(=O)N(c2ccccc2)C(C(=O)NCc2ccc(F)cc2)c2ccc(O)cc2)c1N` (stereo not shown) [MLS001219621-01], the “CMV-LACZ in Myotubes (β-galactosidase activity relative to DMSO)” value in assay [1] (5 uM) was found to be 0.9491; in assay [1] (10 uM), 1.063; in assay [1] (20 uM), 1.132; in assay [1] (40 uM), 1.29. Besides, the “Burkin Assay in Myoblasts, value relative to DMSO” value is given as 0.8642 in assay [2] (0.5 uM); 0.8063 in assay [2] (1 uM); 0.7249 in assay [2] (5 uM); 0.7542 in assay [2] (10 uM); 0.7884 in assay [2] (20 uM); 0.5423 in assay [2] (40 uM). The “Burkin Assay in Myotubes (signal relative to DMSO)” value in assay [3] (0.5 uM) was 0.9394; in assay [3] (1 uM), 0.8603; in assay [3] (5 uM), 0.8883; in assay [3] (10 uM) it was 0.8616; in assay [3] (20 uM), 0.648; in assay [3] (40 uM), 0.4537.
For the compound `C/C(=N\Nc1nncc2ccccc12)c1cccc(OC(F)F)c1` [MLS001175556-01], the “CMV-LACZ in Myotubes (β-galactosidase activity relative to DMSO)” value is on record as 1.113 in assay [1] (5 uM), 1.053 in assay [1] (10 uM), 0.9158 in assay [1] (20 uM) and 1.103 in assay [1] (40 uM). The “Burkin Assay in Myoblasts, value relative to DMSO” value was determined as 0.92 in assay [2] (0.5 uM); 0.8625 in assay [2] (1 uM); 0.9202 in assay [2] (5 uM); 0.8856 in assay [2] (10 uM); 0.8956 in assay [2] (20 uM); 0.8018 in assay [2] (40 uM). The “Burkin Assay in Myotubes (signal relative to DMSO)” value in assay [3] (0.5 uM) worked out at 0.949; in assay [3] (1 uM), 1.028; in assay [3] (5 uM) it was 1.1; in assay [3] (10 uM), 0.9013; in assay [3] (20 uM), 0.901; in assay [3] (40 uM) it was 0.7514.
